Test results taken from ChEMBL document CHEMBL1153890, “Total synthesis and biological evaluation of novel C2-C6 region analogues of dictyostatin” (Bioorg Med Chem, 2009).

Tests used:
ASPC1 = assay: Growth inhibition of human AsPC1 cells after 72 hrs by MTT assay; format: functional, cell-based; details: ASPC1, 72 h
DLD-1 = assay: Growth inhibition of human DLD1 cells after 72 hrs by MTT assay; format: functional, cell-based; details: DLD-1, 72 h
PANC-1 [1] = assay: Growth inhibition of human PANC1 cells after 72 hrs by MTT assay; format: functional, cell-based; details: PANC-1, 72 h
[2] = Growth inhibition of paclitaxel-resistant human NCI/ADR cells after 72 hrs by MTT assay; format: functional, cell-based; details: NCI/ADR-RES
PANC-1 [3] = assay: Cell cycle arrest in human PANC1 cells assessed as accumulation at G1 phase at 100 nM after 24 hrs by flow cytometry; format: functional
PANC-1 [4] = assay: Cell cycle arrest in human PANC1 cells assessed as accumulation at S phase at 100 nM after 24 hrs by flow cytometry; format: functional
PANC-1 [5] = assay: Cell cycle arrest in human PANC1 cells assessed as accumulation at G2/M phase at 100 nM after 24 hrs by flow cytometry; format: functional

IC50 (ASPC1) | IC50 (DLD-1) | IC50 (PANC-1 [1]) | Structure (SMILES) | IC50 [2] | Activity (PANC-1 [3]) | Activity (PANC-1 [4]) | Activity (PANC-1 [5])
3100 nM | 930 nM | 1300 nM | C=C/C=C\[C@H](C)[C@H](O)[C@@H](C)[C@H]1CC[C@H](C)C[C@H](C)[C@@H](O)[C@@H](C)/C=C\[C@@H](O)C[C@H](O)[C@H](C)/C=C/CCC(=O)O1 | 1600 nM | – | – | –
– | – | – | C=C/C=C\[C@H](C)[C@@H]1OC(=O)/C=C\C=C\C[C@@H](O)C[C@H](O)/C=C\[C@H](C)[C@H](O)[C@@H](C)C[C@@H](C)CC[C@@H](O)[C@@H]1C | – | 8% | 17% | 76%
– | – | – | C=C/C=C\[C@H](C)[C@@H]1OC(=O)/C=C\C=C\[C@@H](C)[C@@H](O)C[C@H](O)/C=C\[C@H](C)[C@H](O)[C@@H](C)CCCC[C@@H](O)[C@@H]1C | 1500 nM | – | – | –
– | – | – | C=C/C=C\[C@H](C)[C@@H]1OC(=O)CCCC[C@@H](C)[C@@H](O)C[C@H](O)/C=C\[C@H](C)[C@H](O)[C@@H](C)C[C@@H](C)CC[C@@H](O)[C@@H]1C | – | 6% | 9% | 84%
– | – | – | C=C/C=C\[C@H](C)[C@@H]1OC(=O)CC/C=C/[C@@H](C)[C@@H](O)C[C@H](O)/C=C\[C@H](C)[C@H](O)[C@@H](C)C[C@@H](C)CC[C@@H](O)[C@@H]1C | – | 9% | 17% | 75%
– | – | – | C=C/C=C\[C@H](C)[C@@H]1OC(=O)/C=C\C=C\[C@@H](C)[C@@H](O)C[C@H](O)/C=C\[C@H](C)[C@H](O)[C@@H](C)C[C@@H](C)CC[C@@H](O)[C@@H]1C [DICTYOSTATIN] | – | 4.2% | 14% | 82%
4900 nM | 1500 nM | 3200 nM | C=C/C=C\[C@H](C)[C@H](O)[C@@H](C)[C@H]1CC[C@H](C)C[C@H](C)[C@@H](O)[C@@H](C)/C=C\[C@@H](O)C[C@H](O)[C@H](C)CCCCC(=O)O1 | 3100 nM | – | – | –
